Source: US9447100B2, “Substituted pyrazolo[1,5-A] pyrimidines as calcium receptor modulating agents” (Takeda Pharmaceutical Company Limited, priority 2002, dated 2016)

Columns and labels:
human CaR = molecular target: T1, human CaR (Homo sapiens, UniProt P41180); assay: [35S]-GTPγS binding assay in membrane fraction of human CaR-expressing CHO cells; format: biochemical; conditions: relative to binding with 6 mM calcium only (100×(t′−b)/(t−b))
T1 construct: expressed in transfected cells; host or cells: CHO-K1 cells stably transfected with pMSRαneo-CaR (cDNA amplified from human kidney cDNA); membrane fraction used
T1 sequence (P41180 20-1078): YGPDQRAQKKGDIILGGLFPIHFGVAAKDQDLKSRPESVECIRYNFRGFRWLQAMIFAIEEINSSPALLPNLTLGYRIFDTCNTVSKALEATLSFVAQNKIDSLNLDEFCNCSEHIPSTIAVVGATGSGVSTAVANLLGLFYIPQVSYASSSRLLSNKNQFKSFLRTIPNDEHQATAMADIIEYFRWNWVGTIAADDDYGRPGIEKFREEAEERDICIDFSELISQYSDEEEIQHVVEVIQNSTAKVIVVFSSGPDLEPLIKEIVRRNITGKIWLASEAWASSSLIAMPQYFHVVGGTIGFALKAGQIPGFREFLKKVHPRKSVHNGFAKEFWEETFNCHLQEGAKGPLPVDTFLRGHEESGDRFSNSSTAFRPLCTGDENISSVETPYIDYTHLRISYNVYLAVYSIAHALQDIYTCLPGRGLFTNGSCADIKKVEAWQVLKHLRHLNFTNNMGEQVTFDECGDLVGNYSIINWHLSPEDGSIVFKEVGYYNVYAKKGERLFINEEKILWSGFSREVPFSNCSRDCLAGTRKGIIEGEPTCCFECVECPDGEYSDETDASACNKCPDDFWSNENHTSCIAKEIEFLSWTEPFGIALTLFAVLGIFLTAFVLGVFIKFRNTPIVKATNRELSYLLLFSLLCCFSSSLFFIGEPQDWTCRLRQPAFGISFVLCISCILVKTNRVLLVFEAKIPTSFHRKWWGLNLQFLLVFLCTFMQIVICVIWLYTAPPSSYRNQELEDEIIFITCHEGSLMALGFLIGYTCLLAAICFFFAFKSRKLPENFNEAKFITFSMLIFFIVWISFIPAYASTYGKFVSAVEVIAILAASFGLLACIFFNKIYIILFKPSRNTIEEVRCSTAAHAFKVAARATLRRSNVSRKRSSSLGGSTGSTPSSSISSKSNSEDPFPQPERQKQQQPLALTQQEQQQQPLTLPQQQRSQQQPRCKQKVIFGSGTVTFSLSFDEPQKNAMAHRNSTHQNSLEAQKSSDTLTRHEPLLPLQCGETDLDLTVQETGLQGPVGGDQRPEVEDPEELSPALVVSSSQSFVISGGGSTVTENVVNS
Procedure: Preparation of membrane fraction is described bellow. The human CaR-expressing CHO cells were inoculated to a F500 flask in 1.8×10^5 cells/flask followed by cultivation for 2 days. The cells were scraped with 10 ml of Phosphate-Buffered Saline containing 0.02% EDTA. After centrifugation (2000 rpm, 10 min) of the cells, the cell pellet was resuspended into 12 ml of homogenate buffer solution (10 mM NaHCO3, 1 mM EDTA, 1× Protease inhibitor cocktail (pH 7.4)) and homogenized by Polytron™ (20000 rpm, 1 min). The cell debris was removed by centrifugation (2000 rpm, 10 min), and then the CaR-expressing cell membrane fraction was collected by ultracentrifugation (Beckman 70 Ti type rotor, 30000 rpm, 1 hour).
The GTPγS binding activity was measured as follows. Twenty μg of the CaR-expressing cell membrane was incubated with test compounds for 10 min. The assays were carried out at room temperature for an hour in a reaction solution mixture containing 20 mM HEPES (pH. 7.4), 100 mM NaCl, 1 mM MgCl2, 167 μg/ml DTT, 5 μM guanosine 5′-diphosphate, 0.4 nM [^35S]-guanosine 5′-(γ-thio)triphosphate ([^35S]-GTPγS) and 6 mM CaCl2. The mixture was filtered through a GF/C filter. After washing fourth with 300 μl of Phosphate-Buffered Saline, the amount of [^35S]-GTPγS bound to the filter was measured using a Top-count scintillation counter.
Effects of test compounds on [^35S]-GTPγS binding were expressed in percentage terms. This was calculated from the equation [100×(t′−b)]/(t−b) where t′, t and b are values of [^35S]-GTPγS binding (dpm), t′ in the presence of 6 mM calcium and the test compound, t in the presence of 6 mM calcium only and b in the absence of both 6 mM calcium and the test compound.

[1] = test compound 1 μM, compounds marked antagonist

SMILES	[35S]-GTPγS binding (%) (human CaR; [1])	melting point	also measured
O=C(NCC(c1ccccc1)N1CCCC1)c1cnn2c1N[C@@H](c1ccccc1)C[C@H]2C(F)(F)F (stereo in doubt) [Example 111, 5-phenyl-N-(2-phenyl-2-(1-pyrrolidinyl)ethyl)-7-(trifluoromethyl)-4,5,6,7-tetrahydropyrazolo[1,5-a]pyrimidine-3-carboxamide]	–	–	[35S]-GTPγS binding (%) (human CaR; test compound 10 μM, compound marked agonist): 256 (10 μM) %
CCC(CC)(NC(=O)c1cnn2c1NC(c1ccccc1)CC2C(F)(F)F)c1ccc(C(F)(F)F)cc1 (stereo not drawn) [Example 310, N-(1-ethyl-1-(4-(trifluoromethyl)phenyl)propyl)-5-phenyl-7-(trifluoromethyl)-4,5,6,7-tetrahydropyrazolo[1,5-a]pyrimidine-3-carboxamide]	0 (1 μM) %	–	–
Cc1ccc(C(OC2CCN(C(=O)c3cnn4c3NC(c3ccccc3)CC4C(F)(F)F)CC2)c2ccc(C)cc2)cc1 (stereo not drawn) [Example 312, 3-((4-(bis(4-methylphenyl)methoxy)-1-piperidinyl)carbonyl)-5-phenyl-7-(trifluoromethyl)-4,5,6,7-tetrahydropyrazolo[1,5-a]pyrimidine]	10 (1 μM) %	–	–
COc1ccc(C(CNC(=O)c2cnn3c2NC(c2ccccc2)CC3C(F)(F)F)c2ccccc2)cc1 (stereo not drawn) [Example 318, N-(2-(4-methoxyphenyl)-2-phenylethyl)-5-phenyl-7-(trifluoromethyl)-4,5,6,7-tetrahydropyrazolo[1,5-a]pyrimidine-3-carboxamide]	34 (1 μM) %	–	–
COc1ccc(C(NC(=O)c2cnn3c2NC(c2ccccc2)CC3C)c2ccc(OC)cc2)cc1 (stereo not drawn) [Example 335, N-(bis(4-methoxyphenyl)methyl)-7-methyl-5-phenyl-4,5,6,7-tetrahydropyrazolo[1,5-a]pyrimidine-3-carboxamide]	0 (1 μM) %	–	–
CC1(C(F)(F)F)CC(c2ccccc2)Nc2c(C(=O)NC34CC5CC(CC(C5)C3)C4)cnn21 (stereo not drawn) [Example 436, N-(1-adamantyl)-7-methyl-5-phenyl-7-(trifluoromethyl)-4,5,6,7-tetrahydropyrazolo[1,5-a]pyrimidine-3-carboxamide]	12 (1 μM) %	–	–
CC(C)[C@H]1CC[C@H](C)CC1OC(=O)c1cnn2c1NC(c1ccccc1)CC2(C)C (stereo partly drawn) [Example 1140, (2R,5S)-2-isopropyl-5-methylcyclohexyl 7,7-dimethyl-5-phenyl-4,5,6,7-tetrahydropyrazolo[1,5-a]pyrimidine-3-carboxylate]	–	123 to 124 °C	–
CCC(CC)(c1ccc(C)cc1)c1nnc(-c2c(C)nn3c2N[C@@H](c2ccccc2)CC3(C)C)s1 [Example 1143, (5R)-3-(5-(1-ethyl-1-(4-methylphenyl)propyl)-1,3,4-thiadiazol-2-yl)-2,7,7-trimethyl-5-phenyl-4,5,6,7-tetrahydropyrazolo[1,5-a]pyrimidine]	–	132 to 134 °C	–
CCC(CC)(c1ccccc1)c1nnc(-c2c(C)nn3c2N[C@@H](c2ccccc2)CC3(C)C)s1 [Example 1145, (5R)-3-(5-(1-ethyl-1-phenylpropyl)-1,3,4-thiadiazol-2-yl)-2,7,7-trimethyl-5-phenyl-4,5,6,7-tetrahydropyrazolo[1,5-a]pyrimidine]	–	174 to 175 °C	–

Continued, in another order:

[35S]-GTPγS binding (%) (human CaR; [1])	melting point	SMILES	also measured
0 (1 μM) %	–	CCC(CC)(NC(=O)c1cnn2c1NC(c1ccccc1)CC2(C)C)c1ccc(-c2ccsc2)cc1 (stereo not drawn) [Example 423, N-(1-ethyl-1-(4-(3-thienyl)phenyl)propyl)-7,7-dimethyl-5-phenyl-4,5,6,7-tetrahydropyrazolo[1,5-a]pyrimidine-3-carboxamide]	–
–	118 to 120 °C	CCC1(CC)C[C@@H](OCc2ccccc2)CN1C(=O)c1cnn2c1N[C@@H](c1ccccc1)CC2(C)C [Example 1103, (5R)-3-(((4R)-4-(benzyloxy)-2,2-diethyl-1-pyrrolidinyl)carbonyl)-7,7-dimethyl-5-phenyl-4,5,6,7-tetrahydropyrazolo[1,5-a]pyrimidine]	–
–	172 to 174 °C	CCC1(CC)C[C@@H](OCc2ccccc2)CN1C(=O)c1cnn2c1N[C@H](c1ccccc1)CC2(C)C [Example 1105, (5S)-3-(((4R)-4-(benzyloxy)-2,2-diethyl-1-pyrrolidinyl)carbonyl)-7,7-dimethyl-5-phenyl-4,5,6,7-tetrahydropyrazolo[1,5-a]pyrimidine]	–
–	173 to 175 °C	CCC1(CC)C[C@H](OCc2ccccc2)CN1C(=O)c1cnn2c1N[C@@H](c1ccccc1)CC2(C)C [Example 1107, (5R)-3-(((4S)-4-(benzyloxy)-2,2-diethy-1-pyrrolidinyl)carbonyl)-7,7-dimethyl-5-phenyl-4,5,6,7-tetrahydropyrazolo[1,5-a]pyrimidine]	–
–	116 to 118 °C	CCC1(CC)C[C@H](OCc2ccccc2)CN1C(=O)c1cnn2c1N[C@H](c1ccccc1)CC2(C)C [Example 1109, (5S)-3-(((4S)-4-(benzyloxy)-2,2-diethy-1-pyrrolidinyl)carbonyl)-7,7-dimethyl-5-phenyl-4,5,6,7-tetrahydropyrazolo[1,5-a]pyrimidine]	–
–	148 to 150 °C	CCC1(CC)C[C@@H](OC)CN1C(=O)c1cnn2c1N[C@@H](c1ccccc1)CC2(C)C [Example 1111, (5R)-3-(((4R)-2,2-diethyl-4-methoxy-1-pyrrolidinyl)carbonyl)-7,7-dimethyl-5-phenyl-4,5,6,7-tetrahydropyrazolo[1,5-a]pyrimidine]	–
–	122 to 124 °C	CCC1(CC)C[C@H](OC)CN1C(=O)c1cnn2c1N[C@@H](c1ccccc1)CC2(C)C [Example 1113, (5R)-3-(((4S)-2,2-diethyl-4-methoxy-1-pyrrolidinyl)carbonyl)-7,7-dimethyl-5-phenyl-4,5,6,7-tetrahydropyrazolo[1,5-a]pyrimidine]	–
–	250 to 252 °C	CCC1(CC)C[C@@H](O)CN1C(=O)c1cnn2c1N[C@@H](c1ccccc1)CC2(C)C [Example 1115, (3R)-1-(((5R)-7,7-dimethyl-5-phenyl-4,5,6,7-tetrahydropyrazolo[1,5-a]pyrimidin-3-yl)carbonyl)-5,5-diethyl-3-pyrrolidinol]	–
–	249 to 251 °C	CCC1(CC)C[C@H](O)CN1C(=O)c1cnn2c1N[C@@H](c1ccccc1)CC2(C)C [Example 1117, (3S)-1-(((5R)-7,7-dimethyl-5-phenyl-4,5,6,7-tetrahydropyrazolo[1,5-a]pyrimidin-3-yl)carbonyl)-5,5-diethyl-3-pyrrolidinol]	–
